According to patent US20100144728A1, “Oxazolidinone For The Treatment And Prophylaxis Of Pulmonary Hypertension” (Bayer Schering Pharma AG, priority 2007, published 2010):

Test system: monocrotaline-induced pulmonary hypertension
Experiment: Monocrotaline-induced pulmonary hypertension in rats (haemodynamics, right heart hypertrophy, bleeding)
Format: in vivo, rat
Conditions: for bleeding complications in treated animals: bleeding with fatal outcome or need to euthanize; for effect on haemodynamics in the right heart and pulmonary circulation and right heart hypertrophy (in words): comparison of Example 1, enoxaparin and warfarin
Source text: The monocrotaline-induced pulmonary hypertension in rats is a widely used animal model of pulmonary arterial hypertension. The pyrrolizidine alkaloid monocrotaline is metabolized after subcutaneous injection to toxic monocrotaline pyrrole in the liver and leads within a few days to endothelial damage and coagulation activation and thrombosis formation in the pulmonary circulation, followed by remodelling of the small pulmonary arteries (media hypertrophy, de-novo muscularization). A single subcutaneous injection is sufficient to induce pronounced pulmonary hypertension in rats within 4 weeks.
Male Sprague-Dawley rats are used for the model. On day 0, the animals receive a subcutaneous injection of monocrotaline 60 mg/kg. The treatment of the animals starts before the monocrotaline injection and extends over a period of at least 28 days. At the end of the study, the animals undergo haemodynamic investigations, and the arterial and central venous oxygen saturation is measured. The rats are initially anaesthetized with pentobarbital 60 mg/kg for the haemodynamic measurement. The animals are then tracheotomized and artificially ventilated (frequency: 60 breaths/min; inspiration to expiration ratio: 50:50; positive end-expiratory pressure: 1 cm H2O; tidal volume: 10 ml/kg body weight; FIO2: 0.5). The anaesthesia is maintained by isoflurane inhalation anaesthesia. The systemic blood pressure is measured in the left carotid artery by means of a Millar microtip catheter. A polyethylene catheter is advanced through the right jugular vein into the right ventricle for determining the right ventricular pressure. The cardiac output is measured by thermodilution. Following the haemodynamics, the heart is removed and the ratio of right to left ventricle including septum is determined.

O=C(NC[C@H]1CN(c2ccc(N3CCOCC3=O)cc2)C(=O)O1)c1ccc(Cl)s1 [Example 1, 5-chloro-N-({(5S)-2-oxo-3-[4-(3-oxomorpholin-4-yl)phenyl]-1,3-oxazolidin-5-yl}methyl)thiophene-2-carboxamide]
RVEDP (Table 1, 3-9 mg/kg/d): 4 mmHg
dP/dtmax (Table 1, 3-9 mg/kg/d): 2715 mmHg/s
RVPmax (Table 1, 3-9 mg/kg/d, at least 28 days treatment): 55 mmHg
CO (Table 1, 3-9 mg/kg/d, cardiac output): 117 mL/min
RV/(LV + S) (Table 1, 3-9 mg/kg/d, weight of right heart relative to left heart including septum): 0.41
CO (Table 1, 10-30 mg/kg/d): 117 mL/min
RV/(LV + S) (Table 1, 10-30 mg/kg/d): 0.33
RVEDP (Table 1, 10-30 mg/kg/d): 3 mmHg
RVPmax (Table 1, 10-30 mg/kg/d): 44 mmHg
dP/dtmax (Table 1, 10-30 mg/kg/d): 2244 mmHg/s
CO (Table 2, 10-30 mg/kg/d): 125 mL/min
RV/(LV + S) (Table 2, 10-30 mg/kg/d): 0.38
RVEDP (Table 2, 10-30 mg/kg/d): 3 mmHg
RVPmax (Table 2, 10-30 mg/kg/d): 57 mmHg
dP/dtmax (Table 2, 10-30 mg/kg/d): 3300 mmHg/s
bleeding complications in treated animals: no bleedings
effect on haemodynamics in the right heart and pulmonary circulation and right heart hypertrophy (in words): better activity

CC(=O)CC(c1ccccc1)c1c(O)c2ccccc2oc1=O (stereo not shown) [Warfarin, warfarin, reference compound]
CO (Table 2, 0.1-0.2 mg/kg/d): 100 mL/min
RV/(LV + S) (Table 2, 0.1-0.2 mg/kg/d): 0.46
RVEDP (Table 2, 0.1-0.2 mg/kg/d): 4 mmHg
RVPmax (Table 2, 0.1-0.2 mg/kg/d): 64 mmHg
dP/dtmax (Table 2, 0.1-0.2 mg/kg/d): 4535 mmHg/s
bleeding complications in treated animals: half of the animals
effect on haemodynamics in the right heart and pulmonary circulation and right heart hypertrophy (in words): significantly smaller effect

enoxaparin [reference compound]
CO (Table 2, 20 mg/kg/d): 77 mL/min
RV/(LV + S) (Table 2, 20 mg/kg/d): 0.56
RVEDP (Table 2, 20 mg/kg/d): 6 mmHg
RVPmax (Table 2, 20 mg/kg/d): 85 mmHg
dP/dtmax (Table 2, 20 mg/kg/d): 4644 mmHg/s
bleeding complications in treated animals: half of the animals
effect on haemodynamics in the right heart and pulmonary circulation and right heart hypertrophy (in words): no effect
